From PMC10746543, “Design principles for cyclin K molecular glue degraders” (Nature Chemical Biology, 2023)
“And” between values parts separate entries of the source, which are not always exact repeats. Equal entries are not always repeated. Where two headings read alike, the source gives them in different places.

Columns and labels:
CDK12–cyclin K and DDB1 = target: T1, CDK12–cyclin K and DDB1 (Homo sapiens, UniProt Q16531+Q9NYV4, K965R); test: TR-FRET ternary complex formation assay (compound titration); assay type: binding; details: for TR-FRET signal at compound concentration: replicate titrations
T1 construct: His6–CDK12 (a.a. 713–1,052); full-length or beta-propeller B domain deletion (ΔBPB: a.a. 396–705 deleted) constructs of His6–DDB1ΔBPB, StrepII–Avi–DDB1, or His6–Spy–DDB1; made in house; host or cells: Trichoplusia ni High Five insect cells (baculovirus)
In short: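 A time delay of 70 μs preceded acquisition, limiting background fluorescence; the ratio of emission at 520 versus 490 nm gave the TR-FRET value.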

HEK293T cells = test: Drug sensitivity assay (CellTiter-Glo viability) with or without MLN4924 pretreatment; assay type: cell-based, human; details: for EC50: Homo sapiens, HEK-293T
In short: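 Cas9-expressing HEK293T cells receive either vehicle or 100 nM MLN4924, then compounds 2 h afterwards. After three days, luminescence-based viability is measured and calculated relative to DMSO.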

CDK12 = target: T2, CDK12 (Homo sapiens, UniProt Q16531+Q9NYV4); test: Label-free quantitative mass spectrometry in MDA-MB-231 cells, CDK12; assay type: cell-based
T2 construct: endogenous in cells; host or cells: MDA-MB-231
Method: MDA-MB-231 cells were treated with DMSO or a cyclin K degrader compound at 1 µM for 5 h. Cells were collected by centrifugation and washed with phosphate-buffered saline before snap freezing in liquid nitrogen. Cells were lysed by addition of lysis buffer (8 M urea, 50 mM NaCl, 50 mM 4-(2-hydroxyethyl)-1-piperazineethanesulfonic acid (EPPS) pH 8.5, and protease and phosphatase inhibitors) and homogenization by bead beating (BioSpec) for three repeats of 30 s at 2,400 rpm. Bradford assay was used to determine the final protein concentration in the clarified cell lysate. Then 50 µg of protein for each sample was reduced, alkylated and precipitated using methanol/chloroform as previously described, and the resulting washed precipitated protein was allowed to air dry. Precipitated protein was resuspended in 4 M urea, 50 mM HEPES pH 7.4, followed by dilution to 1 M urea with the addition of 200 mM EPPS, pH 8. Proteins were first digested with LysC (1:50; enzyme:protein) for 12 h at room temperature. The LysC digestion was diluted to 0.5 M urea with 200 mM EPPS pH 8 followed by digestion with trypsin (1:50; enzyme:protein) for 6 h at 37 °C. Sample digests were acidified with formic acid to a pH of 2–3 before desalting using C18 solid phase extraction plates (SOLA, Thermo Fisher Scientific). Desalted peptides were dried in a vacuum-centrifuged and reconstituted in 0.1% formic acid for liquid chromatography–mass spectrometry analysis.
Data were collected using a TimsTOF Pro2 (Bruker Daltonics) coupled to a nanoElute LC pump (Bruker Daltonics) via a CaptiveSpray nano-electrospray source. Peptides were separated on a reversed-phase C18 column (25 cm × 75 µm inner diameter, […], IonOpticks) containing an integrated captive spray emitter. Peptides were separated using a 50 min gradient of 2–30% buffer B (acetonitrile in 0.1% formic acid) with a flow rate of 250 nl min^−1 and column temperature maintained at 50 °C.
Data-dependent acquisition (DDA) was performed in Parallel Accumulation-Serial Fragmentation (PASEF) mode to determine effective ion mobility windows for downstream diaPASEF data collection. The ddaPASEF parameters included: 100% duty cycle using accumulation and ramp times of 50 ms each, one Trapped Ion Mobility Spectrometry(TIMS)-MS scan and ten PASEF ramps per acquisition cycle. The TIMS-MS survey scan was acquired between 100 m/z and 1,700 m/z and 1/K0 of 0.7–1.3 V s cm^−2. Precursors with one to five charges were selected, and those that reached an intensity threshold of 20,000 arbitrary units were actively excluded for 0.4 min. The quadrupole isolation width was set to 2 m/z for m/z < 700 and 3 m/z for m/z > 800, with the m/z between 700 m/z and 800 m/z being interpolated linearly. […] To perform diaPASEF, the precursor distribution in the DDA m/z-ion mobility plane was used to design an acquisition scheme for data-independent acquisition (DIA) data collection that included two windows in each 50 ms diaPASEF scan. Data were acquired using 16 of these 25 Da precursor double window scans (creating 32 windows) that covered the diagonal scan line for doubly and triply charged precursors, with singly charged precursors able to be excluded by their position in the m/z-ion mobility plane. These precursor isolation windows were defined between 400 m/z and 1,200 m/z and 1/K0 of 0.7–1.3 V s cm^−2.
DirectDIA mode includes first extracting the DIA data into a collection of MS2 spectra which are searched using Spectronaut’s Pulsar search engine. The search results are then used to generate a spectral library which is then employed for the targeted analysis of the DIA data. MS/MS spectra were searched against a Swissprot human database (January 2021). Database search criteria largely followed the default settings for directDIA including: tryptic with two missed cleavages, fixed carbomidomethylation of cysteine, and variable oxidation of methionine and acetylation of protein N-termini and precursor Q-value (FDR) cut-off of 0.01. […]

[1] = compound concentration 993.601 nM
[2] = compound concentration 2001.6 nM

T1 sequence (Q9NYV4 713-1052 K965R): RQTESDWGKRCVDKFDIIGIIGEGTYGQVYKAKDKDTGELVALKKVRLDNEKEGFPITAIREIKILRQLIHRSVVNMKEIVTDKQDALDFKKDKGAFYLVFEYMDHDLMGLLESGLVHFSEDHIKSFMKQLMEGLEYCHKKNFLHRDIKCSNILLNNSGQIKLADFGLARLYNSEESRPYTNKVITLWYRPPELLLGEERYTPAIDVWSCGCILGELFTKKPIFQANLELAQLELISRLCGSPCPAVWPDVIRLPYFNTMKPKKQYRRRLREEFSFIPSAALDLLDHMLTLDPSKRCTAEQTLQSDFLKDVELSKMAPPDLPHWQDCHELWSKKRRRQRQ
T1 sequence (O75909 1-267 partner): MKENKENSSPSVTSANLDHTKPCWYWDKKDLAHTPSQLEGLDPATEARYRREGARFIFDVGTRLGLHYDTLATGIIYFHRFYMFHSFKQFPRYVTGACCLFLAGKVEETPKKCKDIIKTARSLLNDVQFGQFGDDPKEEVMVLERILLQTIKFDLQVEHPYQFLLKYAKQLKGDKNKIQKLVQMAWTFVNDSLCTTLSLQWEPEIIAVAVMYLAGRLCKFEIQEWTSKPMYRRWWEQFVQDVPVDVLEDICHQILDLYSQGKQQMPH
T1 sequence (Q16531 whole entry): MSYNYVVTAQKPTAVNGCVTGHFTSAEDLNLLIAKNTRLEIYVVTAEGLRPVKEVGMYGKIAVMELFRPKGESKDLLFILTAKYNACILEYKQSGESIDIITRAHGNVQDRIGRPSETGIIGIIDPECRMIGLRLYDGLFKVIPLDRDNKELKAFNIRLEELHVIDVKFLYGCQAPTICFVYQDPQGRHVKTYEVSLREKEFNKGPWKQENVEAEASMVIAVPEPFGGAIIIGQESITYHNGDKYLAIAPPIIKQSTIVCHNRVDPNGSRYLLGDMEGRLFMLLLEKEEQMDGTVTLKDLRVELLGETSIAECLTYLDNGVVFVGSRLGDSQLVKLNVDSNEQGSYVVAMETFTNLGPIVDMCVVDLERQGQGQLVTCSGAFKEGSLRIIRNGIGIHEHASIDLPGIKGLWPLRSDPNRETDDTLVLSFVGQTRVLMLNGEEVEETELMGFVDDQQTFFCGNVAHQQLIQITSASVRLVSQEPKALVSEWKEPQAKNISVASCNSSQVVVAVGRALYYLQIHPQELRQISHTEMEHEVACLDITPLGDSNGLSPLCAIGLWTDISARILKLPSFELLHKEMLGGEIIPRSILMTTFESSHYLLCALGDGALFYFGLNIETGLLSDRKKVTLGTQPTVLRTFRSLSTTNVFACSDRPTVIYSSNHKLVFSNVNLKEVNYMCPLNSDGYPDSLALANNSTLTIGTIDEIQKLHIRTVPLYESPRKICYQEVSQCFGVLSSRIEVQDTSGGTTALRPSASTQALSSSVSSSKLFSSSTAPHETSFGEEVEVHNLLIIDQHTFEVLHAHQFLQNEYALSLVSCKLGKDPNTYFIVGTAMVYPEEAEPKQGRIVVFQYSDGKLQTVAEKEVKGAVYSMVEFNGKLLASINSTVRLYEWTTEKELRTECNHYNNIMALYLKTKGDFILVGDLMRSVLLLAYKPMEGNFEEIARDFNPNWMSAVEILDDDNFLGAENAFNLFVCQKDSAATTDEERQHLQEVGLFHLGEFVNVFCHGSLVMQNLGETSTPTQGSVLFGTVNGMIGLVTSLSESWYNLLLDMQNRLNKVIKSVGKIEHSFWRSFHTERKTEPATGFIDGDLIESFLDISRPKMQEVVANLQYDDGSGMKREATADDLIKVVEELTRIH
T2 sequence (Q9NYV4 whole entry): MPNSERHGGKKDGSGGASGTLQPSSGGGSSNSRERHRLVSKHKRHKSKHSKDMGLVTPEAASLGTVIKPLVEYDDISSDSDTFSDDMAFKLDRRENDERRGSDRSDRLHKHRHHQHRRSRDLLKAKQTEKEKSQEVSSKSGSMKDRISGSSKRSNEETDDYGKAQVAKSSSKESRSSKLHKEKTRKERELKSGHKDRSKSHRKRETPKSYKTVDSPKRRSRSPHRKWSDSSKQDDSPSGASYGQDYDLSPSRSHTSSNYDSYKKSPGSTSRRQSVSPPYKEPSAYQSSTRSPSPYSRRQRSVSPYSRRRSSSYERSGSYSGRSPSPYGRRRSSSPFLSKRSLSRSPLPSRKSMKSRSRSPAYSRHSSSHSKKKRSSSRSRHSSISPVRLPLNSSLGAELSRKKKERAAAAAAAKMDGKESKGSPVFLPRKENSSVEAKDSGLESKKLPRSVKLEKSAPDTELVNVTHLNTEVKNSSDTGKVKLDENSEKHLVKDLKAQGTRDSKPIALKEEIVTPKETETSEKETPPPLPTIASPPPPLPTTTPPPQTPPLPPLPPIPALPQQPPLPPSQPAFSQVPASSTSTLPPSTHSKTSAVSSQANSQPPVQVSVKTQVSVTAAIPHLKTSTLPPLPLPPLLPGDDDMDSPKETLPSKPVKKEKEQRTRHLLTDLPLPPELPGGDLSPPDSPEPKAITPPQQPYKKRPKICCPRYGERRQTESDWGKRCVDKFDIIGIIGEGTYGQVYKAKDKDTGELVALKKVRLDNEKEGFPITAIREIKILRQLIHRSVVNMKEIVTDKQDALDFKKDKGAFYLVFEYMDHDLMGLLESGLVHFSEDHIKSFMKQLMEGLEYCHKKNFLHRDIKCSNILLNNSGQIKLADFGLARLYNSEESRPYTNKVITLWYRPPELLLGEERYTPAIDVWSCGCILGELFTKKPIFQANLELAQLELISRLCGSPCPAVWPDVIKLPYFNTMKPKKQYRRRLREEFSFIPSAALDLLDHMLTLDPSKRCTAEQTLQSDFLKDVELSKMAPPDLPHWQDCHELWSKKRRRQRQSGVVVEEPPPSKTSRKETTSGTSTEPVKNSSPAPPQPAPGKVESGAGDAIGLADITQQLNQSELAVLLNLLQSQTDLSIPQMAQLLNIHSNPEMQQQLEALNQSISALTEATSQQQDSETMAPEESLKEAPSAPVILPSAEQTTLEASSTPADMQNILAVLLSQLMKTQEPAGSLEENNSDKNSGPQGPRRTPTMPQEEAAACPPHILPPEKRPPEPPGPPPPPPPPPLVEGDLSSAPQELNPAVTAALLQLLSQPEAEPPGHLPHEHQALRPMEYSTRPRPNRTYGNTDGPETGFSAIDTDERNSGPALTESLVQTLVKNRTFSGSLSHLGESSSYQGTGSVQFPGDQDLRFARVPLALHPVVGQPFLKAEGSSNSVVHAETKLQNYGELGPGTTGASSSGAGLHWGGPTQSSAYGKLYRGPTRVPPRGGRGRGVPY
T2 sequence (O75909 whole entry partner): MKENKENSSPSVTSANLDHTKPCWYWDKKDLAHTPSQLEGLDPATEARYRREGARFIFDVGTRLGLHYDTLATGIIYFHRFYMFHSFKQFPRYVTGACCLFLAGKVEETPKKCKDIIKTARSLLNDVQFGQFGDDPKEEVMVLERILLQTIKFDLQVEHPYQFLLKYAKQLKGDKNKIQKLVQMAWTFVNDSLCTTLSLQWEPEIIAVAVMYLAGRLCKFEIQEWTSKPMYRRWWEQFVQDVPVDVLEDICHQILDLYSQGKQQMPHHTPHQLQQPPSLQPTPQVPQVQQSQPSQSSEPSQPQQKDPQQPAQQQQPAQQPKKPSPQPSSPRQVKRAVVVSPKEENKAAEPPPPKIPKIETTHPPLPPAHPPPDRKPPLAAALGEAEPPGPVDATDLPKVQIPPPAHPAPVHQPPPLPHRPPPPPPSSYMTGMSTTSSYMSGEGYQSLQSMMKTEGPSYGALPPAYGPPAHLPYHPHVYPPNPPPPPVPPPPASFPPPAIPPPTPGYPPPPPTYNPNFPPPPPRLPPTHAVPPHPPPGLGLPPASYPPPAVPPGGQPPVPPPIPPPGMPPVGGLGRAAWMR
T2 sequence (Q16531 2-1140 limits assumed): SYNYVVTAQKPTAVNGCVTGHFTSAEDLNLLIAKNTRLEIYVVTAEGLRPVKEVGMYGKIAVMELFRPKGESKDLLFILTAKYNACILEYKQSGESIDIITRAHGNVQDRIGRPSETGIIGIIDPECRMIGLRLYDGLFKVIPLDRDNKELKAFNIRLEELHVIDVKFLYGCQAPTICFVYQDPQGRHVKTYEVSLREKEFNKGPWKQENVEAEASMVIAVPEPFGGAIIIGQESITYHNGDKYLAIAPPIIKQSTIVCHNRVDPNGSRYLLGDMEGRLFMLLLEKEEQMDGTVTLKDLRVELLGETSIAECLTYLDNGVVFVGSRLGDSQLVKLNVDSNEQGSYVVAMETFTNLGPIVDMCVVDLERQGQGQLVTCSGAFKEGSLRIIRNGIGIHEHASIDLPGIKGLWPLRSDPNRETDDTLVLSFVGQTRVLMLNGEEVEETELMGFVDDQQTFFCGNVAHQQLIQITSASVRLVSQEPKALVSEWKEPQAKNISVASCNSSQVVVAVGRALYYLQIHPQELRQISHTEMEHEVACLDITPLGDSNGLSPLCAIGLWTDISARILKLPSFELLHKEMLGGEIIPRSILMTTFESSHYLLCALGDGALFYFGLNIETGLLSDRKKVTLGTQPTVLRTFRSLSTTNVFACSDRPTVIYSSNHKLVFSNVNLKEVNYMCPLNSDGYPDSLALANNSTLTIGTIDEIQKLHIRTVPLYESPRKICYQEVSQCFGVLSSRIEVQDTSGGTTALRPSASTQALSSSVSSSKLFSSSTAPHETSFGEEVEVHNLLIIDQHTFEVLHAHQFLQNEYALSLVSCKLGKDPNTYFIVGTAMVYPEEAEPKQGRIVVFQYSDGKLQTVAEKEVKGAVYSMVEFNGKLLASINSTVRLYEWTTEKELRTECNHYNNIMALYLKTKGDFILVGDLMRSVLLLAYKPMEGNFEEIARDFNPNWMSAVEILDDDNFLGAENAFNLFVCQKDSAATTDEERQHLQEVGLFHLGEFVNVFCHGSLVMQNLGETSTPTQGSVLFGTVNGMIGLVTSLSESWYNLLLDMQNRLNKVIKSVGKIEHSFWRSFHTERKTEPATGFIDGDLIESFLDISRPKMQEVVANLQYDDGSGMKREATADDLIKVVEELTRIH

In the case of `CCC(CO)Nc1nc(NCc2ccc(-c3ccccn3)cc2)c2ncn(C(C)C)c2n1` (stereo not drawn) [CR8, reference compound], the “TR-FRET signal at compound concentration 244.8 nM” value (CDK12–cyclin K and DDB1; compound concentration 244.8 nM, raw replicate titration data) is reported as 4.223 and 4.06 and 4.046 and 4.132 and 4.096 and 3.922 and 3.897 and 4.118 and 4.095 and 3.806 and 3.805 and 3.852 and 3.955 and 3.967 and 4.129 and 4.013 and 4.0726 and 3.918, the “TR-FRET signal at compound concentration 244.8 nM” value (CDK12–cyclin K and DDB1; compound concentration 244.8 nM, raw titration data) is reported as 4.223 and 4.06 and 4.046 and 4.132 and 4.096 and 3.922 and 3.897 and 4.118 and 4.095 and 3.806 and 3.805 and 3.852 and 3.955 and 3.967 and 4.129 and 4.013 and 4.0726 and 3.918 and the “TR-FRET signal at compound concentration” value (CDK12–cyclin K and DDB1; compound concentration 244.8 nM) is reported as 4.223 and 4.06 and 4.046 and 4.132 and 4.096 and 3.922 and 3.897 and 4.118. The “TR-FRET signal, individual replicate” value (CDK12–cyclin K and DDB1; [1]) was 4.301 and 4.232 and 4.095 and 4.244 and 4.268 and 3.98 and 3.937 and 4.179, the “TR-FRET signal at compound concentration 993.601 nM” value (CDK12–cyclin K and DDB1; compound concentration 993.601 nM, raw replicate titration data) was 4.301 and 4.232 and 4.095 and 4.244 and 4.268 and 3.98 and 3.937 and 4.179 and 4.188 and 3.896 and 3.831 and 3.928 and 4.083 and 4.021 and 4.231 and 4.144 and 3.981 and the “TR-FRET signal at compound concentration 993.601 nM” value (CDK12–cyclin K and DDB1; compound concentration 993.601 nM, raw titration data) was 4.301 and 4.232 and 4.095 and 4.244 and 4.268 and 3.98 and 3.937 and 4.179 and 4.188 and 3.896 and 3.831 and 3.928 and 4.083 and 4.021 and 4.231 and 4.144 and 3.981. For the same molecule, the “TR-FRET signal at compound concentration” value (CDK12–cyclin K and DDB1; [1]) was 4.301 and 4.232 and 4.095 and 4.244 and 4.268 and 3.98 and 3.937 and 4.179, the “TR-FRET signal, individual replicate” value (CDK12–cyclin K and DDB1; [2]) was 4.322 and 4.194 and 4.162 and 4.144 and 4.309 and 4.034 and 4.299 and the “TR-FRET signal at compound concentration 2001.6 nM” value (CDK12–cyclin K and DDB1; compound concentration 2001.6 nM, raw replicate titration data) was 4.322 and 4.194 and 4.162 and 4.144 and 4.309 and 4.034 and 4.299 and 4.197 and 3.982 and 3.892 and 3.93 and 4.094 and 4.059 and 4.292 and 4.196 and 4.177 and 4.087. The “TR-FRET signal at compound concentration 2001.6 nM” value (CDK12–cyclin K and DDB1; compound concentration 2001.6 nM, raw titration data) was 4.322 and 4.194 and 4.162 and 4.144 and 4.309 and 4.034 and 4.299 and 4.197 and 3.982 and 3.892 and 3.93 and 4.094 and 4.059 and 4.292 and 4.196 and 4.177 and 4.087, the “TR-FRET signal at compound concentration” value (CDK12–cyclin K and DDB1; [2]) was 4.322 and 4.194 and 4.162 and 4.144 and 4.309 and 4.034 and 4.299 and the “viability assay signal (normalized)” value (HEK293T cells; 2 nM, + MLN4924) was 1.107 and 1.008. For the same molecule, the “viability assay signal (normalized)” value (HEK293T cells; 2 nM, without MLN4924) was 1.041 and 1.037, the “viability assay signal (normalized)” value (HEK293T cells; 4.69 nM, + MLN4924) was 1.279 and 1.055 and the “viability assay signal (normalized)” value (HEK293T cells; 4.69 nM, without MLN4924) was 1.03 and 1.007. The “viability assay signal (normalized)” value (HEK293T cells; 11 nM, + MLN4924) was 1.009 and 1.091, the “viability assay signal (normalized)” value (HEK293T cells; 11 nM, without MLN4924) was 1.0171 and 1.083 and the “viability assay signal (normalized)” value (HEK293T cells; 25.7 nM, + MLN4924) was 1.13 and 1.18. For the same molecule, the “viability assay signal (normalized)” value (HEK293T cells; 25.7 nM, without MLN4924) was 0.9174 and 1.057, the “viability assay signal (normalized)” value (HEK293T cells; 141 nM, + MLN4924) was 1.076 and 1.102 and the “viability assay signal (normalized)” value (HEK293T cells; 141 nM, without MLN4924) was 0.4857 and 0.5122. For the same molecule, the “viability assay signal (normalized)” value (HEK293T cells; 331 nM, + MLN4924) was 0.8705 and 0.873, the “viability assay signal (normalized)” value (HEK293T cells; 331 nM, without MLN4924) was 0.3951 and 0.3542 and the “viability assay signal (normalized)” value (HEK293T cells; 4270 nM, + MLN4924) was 0.4449 and 0.4383. For the same molecule, the “viability assay signal (normalized)” value (HEK293T cells; 4270 nM, without MLN4924) was 0.4332 and 0.4197, the “viability assay signal (normalized)” value (HEK293T cells; 10000 nM, + MLN4924) was 0.4134 and 0.5002 and the “viability assay signal (normalized)” value (HEK293T cells; 10000 nM, without MLN4924) was 0.424 and 0.4316. The EC50 (HEK293T cells; Supplementary Fig. 5, HEK293T, CellTiter Glo, 72h, pre-treatment with 100 nM MLN4924, read-out: Viability EC50, with MLN4924) was 519 nM, the EC50 (HEK293T cells; Supplementary Fig. 5, HEK293T, CellTiter Glo, 72h, read-out: Viability EC50, no MLN4924) was 78 nM and the EC50 (HEK293T cells; Supplementary Table 2, HEK293T viability, 72 h, compound alone, read-out: Cellular assays EC50) was 159 nM. For the same molecule, the Toxicity rescue (HEK293T cells; Supplementary Table 2, MLN4924-mediated cytotoxicity rescue, 10 µM used where n.d.) was 342%, the CDK12 peptide count (CDK12; label-free quantitative MS, replicate values) was 540.299 and 612.59 and the “CDK12 peptide count (DMSO-normalised)” value (CDK12; normalised to DMSO = 1, replicate values) was 0.6003 and 0.6327.
